From PubChem BioAssay AID1549 (Sanford-Burnham Center for Chemical Genomics, 2009)
Activity calls are given as the source filed them. The rule behind the calls is not given here.

Molecular target: Influenza A virus M2 proton channel (A/TW/4845/1999 H1N1)
Experiment: M2 proton channel binding, NMR based, influenza A virus H1N1 strain (AID 1549)
Conditions: NMR binding screen, M2 protein

Structure (SMILES) | Kd
C[C@@H]1CC[C@@]2(OC1)OC1C(O)C3C4CC[C@H]5C[C@H](O[C@@H]6O[C@H](CO)[C@H](O[C@@H]7O[C@H](CO)[C@@H](O)[C@H](O[C@@H]8OC[C@@H](O)[C@H](O)[C@H]8O)[C@H]7O[C@@H]7O[C@H](CO)[C@H](O)[C@H](O[C@@H]8O[C@H](CO)[C@@H](O)[C@H](O)[C@H]8O)[C@H]7O)[C@H](O)[C@H]6O)[C@H](O)C[C@]5(C)C4CC[C@]3(C)C1[C@@H]2C (some centres undefined) | > 4 mM (inactive)
Cn1nnc2cc(C(=O)Nc3cccnc3)ccc21 | > 4 mM (inactive)
Cc1cc(C)n2nc(N)nc2n1 | > 4 mM (inactive)
C=C1CSc2nc(=O)c3c(C)c(C)sc3n21 | > 4 mM (inactive)
c1cncc(Nc2nc(-c3cccnc3)cs2)c1 | > 4 mM (inactive)
Cc1ccc(-c2nnc3sc(-c4ccncc4)nn23)cc1 | > 4 mM (inactive)
O=C(O)C1CC(C2CCCCN2)CN2CCCCC12 (centres undefined) | > 4 mM (inactive)
Cc1cc(N)on1 | > 4 mM (inactive)
Cc1cc(C(=O)Nc2sc(C)c(C)c2C#N)c(C)o1 | > 4 mM (inactive)
CC(C)c1c(O)ccc2c1CCC1[C@@](C)(C=O)CCC[C@]21C (some centres undefined) | > 4 mM (inactive)
C=C1C(=O)O[C@@H]2C3OC3(C)CC/C=C(\C)CC[C@@H]12 (some centres undefined) | > 4 mM (inactive)
O=C(O)c1cc2ccccc2o1 | > 4 mM (inactive)
COC(=O)c1sc(N)nc1C | > 4 mM (inactive)
CC(C)c1nnc(N)s1 | > 4 mM (inactive)
CC1(C)CCC(C)(C)c2cc(C(=O)O)ccc21 | > 4 mM (inactive)
CC(C)=CCc1c(O)cc2oc(C)cc(=O)c2c1O | > 4 mM (inactive)
NC(=O)c1cc(N)ccc1N1CCCCC1 | > 4 mM (inactive)
Cc1ccc(N2C(=O)C3C4C=CC(O4)C3C2=O)cc1 (centres undefined) | > 4 mM (inactive)
CN1CCC(=NNC(=O)c2ccco2)CC1 | > 4 mM (inactive)
COc1ccc2c3c([nH]c2c1)C(C)=NCC3 | > 4 mM (inactive)
O=C(O)c1ccc2c(c1)OCCCO2 | > 4 mM (inactive)
NC1=NC(=O)C(Cc2ccccc2)S1 (centres undefined) | > 4 mM (inactive)
Nc1ccc(-c2cn3c(n2)SCC3)cc1 | > 4 mM (inactive)

Structure (SMILES) | Kd
COc1cccc(C(=O)N2CCOCC2)c1 | > 4 mM (inactive)
N#Cc1sc2nc3c(c(-c4cccnc4)c2c1N)CCC3 | > 4 mM (inactive)
COC(=O)c1cnccc1C(F)(F)F | > 4 mM (inactive)
NCc1csc(-c2ccccc2)n1 | > 4 mM (inactive)
CC[C@@]1(O)C[C@H](O)c2c(cc3c(c2O)C(=O)c2c(O)ccc(O)c2C3=O)[C@H]1C(=O)OC | > 4 mM (inactive)
O=C1OCCC1Sc1nc2ccccc2c(=O)[nH]1 (centres undefined) | > 4 mM (inactive)
CSc1nc(-c2ccco2)nn1S(C)(=O)=O | > 4 mM (inactive)
C#CCCCCCCCCCCCc1ccco1 | > 4 mM (inactive)
CC(CCC(=O)O)[C@H]1CCC2C3CC[C@@H]4C[C@H](O)CC[C@]4(C)C3C[C@H](O)[C@@]21C (some centres undefined) | > 4 mM (inactive)
COc1ccc2c(C)cc(=O)oc2c1 | > 4 mM (inactive)
COc1cc(OC)cc(-c2nc(N)n[nH]2)c1 | > 4 mM (inactive)
O=C(c1ccco1)N1CCCN(C(=O)c2ccco2)CC1 | > 4 mM (inactive)
O=C(O)CCCC(=O)Nc1nccs1 | > 4 mM (inactive)
Cc1ccc(NC(=O)/C=C2\SC(=O)NC2=O)cc1 | > 4 mM (inactive)
Cc1ccc(C(=O)N2CCC(C(N)=O)CC2)c(Cl)c1 | > 4 mM (inactive)
Cc1ccc(C(=O)NCCO)c(Cl)c1 | > 4 mM (inactive)
CNC(=O)N1CCN(C(=O)NC)CC1 | > 4 mM (inactive)
O=C1C2CC=CCC2C(=O)N1c1ccccc1O (centres undefined) | > 4 mM (inactive)
c1ccc2c(c1)ncn2CCn1cnc2ccccc21 | > 4 mM (inactive)
N#Cc1cnn(Cc2ccc(Cl)cc2)c1N | > 4 mM (inactive)
CC(=O)O[C@H]1C(=O)[C@@]2(C)C([C@H](OC(=O)c3ccccc3)[C@]3(O)C[C@H](OC(=O)[C@H](O)[C@@H](NC(=O)c4ccccc4)c4ccccc4)C(C)=C1C3(C)C)[C@]1(OC(C)=O)CO[C@@H]1C[C@@H]2O (some centres undefined) | > 4 mM (inactive)
Fc1ccc(N2CCNCC2)cc1 | > 4 mM (inactive)
O=c1[nH]cnc2c1nnn2Cc1ccccc1 | > 4 mM (inactive)

Structure (SMILES) | Kd
CCOc1nc(C)ccc1-c1noc(-c2ccncc2)n1 | > 4 mM (inactive)
O=C(Nc1nncs1)c1c(F)cccc1F | > 4 mM (inactive)
OC[C@H]1O[C@@](CO)(O[C@@H]2O[C@H](CO)[C@@H](O)[C@H](O)[C@H]2O)[C@@H](O[C@@H]2O[C@H](CO)[C@@H](O)[C@H](O)[C@H]2O)[C@@H]1O | > 4 mM (inactive)
O=C(c1cc2ccccc2o1)c1nc2c(n1O)CCCCC2 | > 4 mM (inactive)
NC(=O)c1ccc(NC(=O)c2ccco2)cc1 | > 4 mM (inactive)
O=C(c1cc2ccccc2o1)N1CCCCCC1 | > 4 mM (inactive)
Cc1cc(=O)n(CCc2ccccc2)c(O)c1C#N | > 4 mM (inactive)
C[C@]12CCC3C(CC[C@]4(O)C[C@@H](O)CC[C@]34C=O)[C@@]1(O)CCC2C1=CC(=O)OC1 (some centres undefined) | > 4 mM (inactive)
CN1CCN(C2CCSC2)CC1 (centres undefined) | > 4 mM (inactive)
COc1ccccc1NS(=O)(=O)c1c[nH]c(=O)[nH]c1=O | > 4 mM (inactive)
OC12CC3CC(C1)C1(NCCS1)C(C3)C2 (centres undefined) | > 4 mM (inactive)
CC(=O)Nc1c(C)n(C)n(-c2ccccc2)c1=O | > 4 mM (inactive)
CC(=O)c1c(C)n(O)c2ccc3nonc3c12 | > 4 mM (inactive)
O=C1CS/C(=N/N=C2CCCC2)N1 | > 4 mM (inactive)
O=C1NC(=S)N/C1=C\c1ccccc1F | > 4 mM (inactive)
O=C(Cc1cccs1)N1CCOCC1 | > 4 mM (inactive)
O=S1(=O)CCC(N2CCCCC2)C1 (centres undefined) | > 4 mM (inactive)
Nc1ccc(F)cc1F | > 4 mM (inactive)
Cc1ccc2c(c1)CC[C@H]1CC(=O)CC[C@]21C | > 4 mM (inactive)
O=C(Nc1ccc2c(c1)OCO2)c1cnn2cccnc12 | > 4 mM (inactive)
NCCc1nc2ccccc2[nH]1 | > 4 mM (inactive)
O=C1C2CCCCC2C(=O)N1Cc1cccnc1 (centres undefined) | > 4 mM (inactive)
O=C(NC12CC3CC(CC(C3)C1)C2)c1cnccn1 | > 4 mM (inactive)

Structure (SMILES) | Kd
Cc1cc(N(CN2CCCC2=O)C(=O)c2ccccc2)no1 | > 4 mM (inactive)
COC(=O)c1cncc(C(=O)OC)c1 | > 4 mM (inactive)
CSc1ccccc1NC(=O)c1ccoc1C | > 4 mM (inactive)
Oc1ccc(C2SCCS2)cc1 | > 4 mM (inactive)
S=C(NCc1cccnc1)NC1CC1 | > 4 mM (inactive)
CNC(=O)C(=O)Nc1ccc(F)cc1 | > 4 mM (inactive)
Cc1ccccc1NC(=O)N1CCOCC1 | > 4 mM (inactive)
COc1ccc2nc(N)sc2n1 | > 4 mM (inactive)
CCc1noc(C)c1C(=O)Nc1ncc(C)s1 | > 4 mM (inactive)
CN1C(=O)C2C=CC1C1C(=O)N(c3ccccc3)C(=O)C21 (centres undefined) | > 4 mM (inactive)
O=c1c2ccccc2nc2n1CCS2 | > 4 mM (inactive)
COc1ccc(-c2oc3ccccc3c(=O)c2O)cc1OC | > 4 mM (inactive)
CC(=O)O[C@@H]1CC2C(C)(C)[C@H](O)C=C[C@]2(C)C2CC[C@@]3(C)[C@H](c4ccoc4)OC(=O)C4OC43[C@@]21C (some centres undefined) | > 4 mM (inactive)
NC(CCC(=O)Nc1ccc([N+](=O)[O-])cc1)C(=O)O (centres undefined) | > 4 mM (inactive)
O=C(Nc1ccc(Cl)cn1)c1cnn2cccnc12 | > 4 mM (inactive)
C=CCCCCCCCCCCCc1ccco1 | > 4 mM (inactive)
NC(=S)NC(=O)CN1C(=O)c2ccccc2C1=O | > 4 mM (inactive)
COC(=O)C1=C(C)N(Cc2ccco2)C(=O)C1 | > 4 mM (inactive)
NC(=O)NC(=O)Nc1ccc(Cl)cc1 | > 4 mM (inactive)
FC(F)(F)c1cc(-c2ccco2)nc(N2CCOCC2)n1 | > 4 mM (inactive)
O=C(Nn1cnnc1)c1cccc(C(F)(F)F)c1 | > 4 mM (inactive)
COc1cc(OC)c(OC)cc1C=O | > 4 mM (inactive)
CC1(C)Oc2ccc3ccc(=O)oc3c2CC1O (centres undefined) | > 4 mM (inactive)

Structure (SMILES) | Kd
Cn1c(-c2ccccc2F)n[nH]c1=S | > 4 mM (inactive)
CCC(=O)NC(=S)Nc1ccc(N2CCOCC2)cc1 | > 4 mM (inactive)
Nc1c(F)c(F)nc(F)c1F | > 4 mM (inactive)
CCOC(=O)CNC(=O)CSc1nnc(C)c(=O)[nH]1 | > 4 mM (inactive)
O=C(Cc1ccccc1)Nc1c[nH]c(=O)[nH]c1=O | > 4 mM (inactive)
COC(=O)c1c(OC)cc2c(c1C)Oc1c(Cl)c(O)c(Cl)c(C)c1C(=O)O2 | > 4 mM (inactive)
O=C1Cn2c(nc3ccccc32)N1c1ccccc1F | > 4 mM (inactive)
C[N+](C)(C)CC(=O)[O-] | > 4 mM (inactive)
CN(C)c1ccc(CNn2cnnc2)cc1 | > 4 mM (inactive)
CC(CC(=O)O)n1cccn1 (centres undefined) | > 4 mM (inactive)
CCOC(=O)C1=C(O)CCN(C)C1 | > 4 mM (inactive)
NC(=O)c1cccc(Cl)n1 | > 4 mM (inactive)
NC(=O)CCn1cnc2ccccc21 | > 4 mM (inactive)
CNc1nc(SC)nc(N2CCOCC2)n1 | > 4 mM (inactive)
CC(=O)c1cccc(NC(=O)Nc2c(C)nn(C)c2C)c1 | > 4 mM (inactive)
COc1ccc(-c2oc3c(CC=C(C)C)c(O[C@@H]4O[C@H](CO)[C@@H](O)[C@H](O)[C@H]4O)cc(O)c3c(=O)c2O[C@@H]2O[C@@H](C)[C@H](O)[C@@H](O)[C@H]2O)cc1 | > 4 mM (inactive)
CN1CCN(c2nc3c(c(=O)[nH]2)CCCC3)CC1 | > 4 mM (inactive)
O=C1NC(=S)N/C1=C/c1ccsc1 | > 4 mM (inactive)
CC(=O)O[C@H]1CC[C@@]2(C)C(CC[C@]3(C)C2CC=C2C4CC(C)(C)CC[C@]4(C)CC[C@]23C)C1(C)C (some centres undefined) | > 4 mM (inactive)
Nn1c(CN2CCCCC2)nc2ccccc2c1=O | > 4 mM (inactive)
Nc1ccc(Oc2ccccc2)nc1 | > 4 mM (inactive)
Nc1ccccc1C(=O)N1CCOCC1 | > 4 mM (inactive)
